According to patent US12589099B2 (priority 2021, dated 2026):

Tests used:
Format in all cases: in vivo, male Wistar rats
[1] = system: moderate traumatic brain injury (TBI) induced by controlled cortical impact (CCI); assay: Foot-fault test (right forelimb and hindlimb) after TBI
Experimental: (§1) FIG. 2: The figure illustrates functional tests that are carried out on healthy (sham surgery) no treatment, vehicle treated and ALPHA-1062 treated rats to assess sensorimotor and cognitive function after TBI. Sensimotor function tests. a) The figure depicts tests to assess the modified neurological severity score (mNSS). […] The animal is required to balance over a grid and the frequency of steps missing the grid are counted. This test assesses the functionality of the injured parietal cortex of the rat's brain. c) The adhesive removal test consists of applying adhesive tape on each forepaw of the animal and measuring the time-to-contact and the time-to-remove them. This behavior requires correct paw and mouth sensitivity (time-to-contact) and correct dexterity (time-to-remove). Cognitive function tests: a) This picture illustrates the Morris water maze that comprises that a rat is placed in a large circular pool (picture on the left) and is required to find an invisible platform that allows it to escape the water by using various visuo-spatial cues. This test is used to study spatial learning and memory and assesses hippocampal and select cortical brain region function. Usually, the path of the rat through the pool is tracked (picture on the right) and the time spend in the proximity of the platform as well as the time needed until the platform is found by the rat are measured. b) For the new/novel object recognition (NOR) test, after a habituation time in the test space (picture on far left) rats are given the opportunity to explore two identical objects (A) for a predetermined period of time (picture in the middle). After a delay, the animals are then presented with two objects to explore, one of which is the same as in the first exploration trial (A), the other a new object (B) (picture on the right). Depending on the length of the delay between the two trials or depending on the extend of cortical damage, the rats will either explore the novel object for a greater time period, indicating memory for the familiar object, or will explore the novel and familiar objects for the same amount of time, indicating a lack of recall or loss of memory for the familiar object presented during the initial trial.
(§2) Young adult (2-3 months) male Wistar rats were subjected to a moderate traumatic brain injury (TBI) induced by controlled cortical impact (CCI). Animal models of TBI including the CCI model and functional tests have been described in detail in peer reviewed publications (Xiong et al., 2013, Nat Rev Neurosci.; Zhang et al., 2016, J Neurosurg.; Zhang et al., 2016, Neurochem Int.; Zhang et al., 2021, J Neurotrauma). Injury consisted of a single impact at 4.0 m/sec, 2.5 mm deformation to the left parietal cortex. In addition, a group of animals was left healthy/not injured to serve as a healthy control.
(§3) The animals were divided into 3 groups: • 1) TBI+Vehicle (purified water, n=10) • 2) TBI+ALPHA-1062 (4.5 mg/kg) (n=10) • 3) Healthy/not injured and not treated (Sham surgery) (n=10)
(§4) The substance used in this study was ALPHA-1062 at 4.5 mg/kg. As control treatment (vehicle) purified water was administered intranasally (IN). The ALPHA-1062 and the control treatment were initiated 2 hours after injury and continued twice daily (with a 6-hour interval) for 35 consecutive days.
In addition, neurological functional tests were performed by conducting footfault tests and observations to determine the modified neurological severity score (mNSS) at 1, 7, 14, 21, 28, 35 days after TBI (see Table 1). The mNSS is a composite score assessing motor, sensory, balance, and reflex functions. Details of the tests and scoring system can be found in Table 2.
Animals were monitored as they walked across a mesh for the number of times their right forelimb “missed” proper placement, indicating reduced locomotor skill. This is indicative of trauma in the left side of the brain. The results are depicted in FIG. 3. […]

[2] = system: moderate traumatic brain injury (TBI) induced by controlled cortical impact (CCI); assay: Right forelimb adhesive removal test after TBI
Experimental: as §1
Young adult (2-3 months) male Wistar rats were subjected to a moderate traumatic brain injury (TBI) induced by controlled cortical impact (CCI). […]
In the adhesive removal test, an adhesive tape is applied to the right forepaw of an animal. Both the time-to-contact the adhesive (sensory perception), as well as the time-to-remove the adhesive (locomotor skill) are assessed by this test.

[3] = system: moderate traumatic brain injury (TBI) induced by controlled cortical impact (CCI); assay: Morris water maze (MWM) test after TBI
Experimental: as §1, §2, §3, §4
During the in vivo part of the study cognitive functional tests were performed by conducting Morris water maze (MWM) tests and novel object recognition tests on all animals at 5 weeks after TBI, with the MWM test being performed on days 31-35 following TBI (see Table 1).
The Morris water maze (MWM) is a test used in behavioral neuroscience to study spatial learning and memory, for example in rats. It enables spatial learning and memory to be studied, and can also be used to assess damage to hippocampus and select cortical regions of the brain. […]

[4] = system: moderate traumatic brain injury (TBI) induced by controlled cortical impact (CCI); assay: Lesion volume and hippocampal structure (H&E) 35 days post-TBI; conditions: 4.5 mg/kg IN twice daily, 35 days after TBI
Source text: as §2, §4
Histological assessment was performed including quantitative image analysis protocols; followed by statistical analysis of the data. Histology: All rats were sacrificed after the last Morris water maze (MWM) test 35 days after TBI for the following histological analyses: lesion volume (H&E), neuronal cell loss in injured cortex and hippocampus (NeuN), doublecortin (DCX, neuroblasts), NeuN/BrdU (newborn neurons), pathological p-Tau (AT8) and total Tau IHC. […]

[5] = rats after TBI, compared to healthy sham animals
[6] = rats after TBI, compared to vehicle treatment
[7] = 4.5 mg/kg IN twice daily, days 33 to 35

## COc1ccc2c3c1O[C@H]1C[C@@H](OC(=O)c4ccccc4)C=C[C@@]31CCN(C)C2 [ALPHA-1062, (4aS,6R,8aS)-5,6,9,10,11,12-hexahydro-3-methoxy-11-methyl-4aH-[1]benzofuro[3a,3,2-ef][2]benzazepin-6-ol benzoate]
[1]; 4.5 mg/kg IN twice daily, by day 28 (D28)
  foot-fault performance compared to uninjured (sham) animals: statistically indistinguishable
[1]; 4.5 mg/kg IN twice daily, from the first day of treatment, vs vehicle
  locomotor skill in fore- and hindlimb foot-fault test, acute: statistically significant preservation of locomotor skill
[1]; 4.5 mg/kg IN twice daily, throughout the study, vs vehicle
  recovery of locomotor skill in fore- and hindlimb foot-fault test: persistently statistically significantly improved recovery
[1]; 4.5 mg/kg IN, 2 h post injury, twice daily, 35 days, vs vehicle after TBI (FIG. 3)
  right forelimb foot faults during the walk over a mesh: significantly fewer foot faults
[1]; 4.5 mg/kg IN, 2 h post injury, twice daily, 35 days, vs vehicle after TBI (FIG. 4)
  right hindlimb foot faults during the walk over a mesh: significantly fewer foot faults
[1]; [5]
  Footfault, performance over SHAM: equivalent to
[1]; [6]
  Footfault, performance over VEHICLE: superior
[2]; 4.5 mg/kg IN twice daily, from day 7 (D7) on (FIG. 6)
  adhesive removal (right forelimb) compared to vehicle: significantly better
[2]; 4.5 mg/kg IN twice daily, starting on day 7 (D7), remainder of study
  adhesive removal (right forelimb) compared to uninjured (sham) animals: as well as the uninjured (sham) animals
[2]; [5]
  Adhesive Removal, performance over SHAM: equivalent to
[2]; [6]
  Adhesive Removal, performance over VEHICLE: superior
[3]; [7]
  MWM % time in the correct quadrant, compared to uninjured (sham surgery) animals: equivalent amount of time
  MWM % time in the correct quadrant, compared to vehicle: statistically significantly better
  MWM latency to find the hidden escape platform, compared to uninjured (sham) animals: as well as the uninjured (sham) animals
  MWM latency to find the hidden escape platform, compared to vehicle: statistically significantly better
[3]; rats after TBI, ALPHA-1062 treatment compared to healthy sham animals
  Morris Water Maze (MWM), performance over SHAM: equivalent to
[3]; rats after TBI, ALPHA-1062 treatment compared to vehicle treatment
  Morris Water Maze (MWM), performance over VEHICLE: superior
[4]
  hippocampal structure on the injured side of the brain: preservation of hippocampal structure
[4]; vs vehicle
  lesion volume: significant (p<0.05) reduction of lesion volume
